Reference: patent publication US20230348487A1, “2-AMINOPYRIMIDINE COMPOUND AND PHARMACEUTICAL COMPOSITION THEREOF AND APPLICATION THEREOF” (GUANGZHOU SALUSTIER BIOSCIENCES CO., LTD., priority 2021, published 2023)
Values joined by “and” are separate entries in the source; they are usually repeats but may differ in a detail not shown here. Identical values can stand only once. Like-named read-outs stand apart in the source and are kept apart here.

Experiments:
JAK2 = JAK2 (Homo sapiens (Human), UniProt O60674); experiment: Z′-Lyte kinase inhibitory activity test; type: biochemical
Chain of JAK2 (O60674 whole entry): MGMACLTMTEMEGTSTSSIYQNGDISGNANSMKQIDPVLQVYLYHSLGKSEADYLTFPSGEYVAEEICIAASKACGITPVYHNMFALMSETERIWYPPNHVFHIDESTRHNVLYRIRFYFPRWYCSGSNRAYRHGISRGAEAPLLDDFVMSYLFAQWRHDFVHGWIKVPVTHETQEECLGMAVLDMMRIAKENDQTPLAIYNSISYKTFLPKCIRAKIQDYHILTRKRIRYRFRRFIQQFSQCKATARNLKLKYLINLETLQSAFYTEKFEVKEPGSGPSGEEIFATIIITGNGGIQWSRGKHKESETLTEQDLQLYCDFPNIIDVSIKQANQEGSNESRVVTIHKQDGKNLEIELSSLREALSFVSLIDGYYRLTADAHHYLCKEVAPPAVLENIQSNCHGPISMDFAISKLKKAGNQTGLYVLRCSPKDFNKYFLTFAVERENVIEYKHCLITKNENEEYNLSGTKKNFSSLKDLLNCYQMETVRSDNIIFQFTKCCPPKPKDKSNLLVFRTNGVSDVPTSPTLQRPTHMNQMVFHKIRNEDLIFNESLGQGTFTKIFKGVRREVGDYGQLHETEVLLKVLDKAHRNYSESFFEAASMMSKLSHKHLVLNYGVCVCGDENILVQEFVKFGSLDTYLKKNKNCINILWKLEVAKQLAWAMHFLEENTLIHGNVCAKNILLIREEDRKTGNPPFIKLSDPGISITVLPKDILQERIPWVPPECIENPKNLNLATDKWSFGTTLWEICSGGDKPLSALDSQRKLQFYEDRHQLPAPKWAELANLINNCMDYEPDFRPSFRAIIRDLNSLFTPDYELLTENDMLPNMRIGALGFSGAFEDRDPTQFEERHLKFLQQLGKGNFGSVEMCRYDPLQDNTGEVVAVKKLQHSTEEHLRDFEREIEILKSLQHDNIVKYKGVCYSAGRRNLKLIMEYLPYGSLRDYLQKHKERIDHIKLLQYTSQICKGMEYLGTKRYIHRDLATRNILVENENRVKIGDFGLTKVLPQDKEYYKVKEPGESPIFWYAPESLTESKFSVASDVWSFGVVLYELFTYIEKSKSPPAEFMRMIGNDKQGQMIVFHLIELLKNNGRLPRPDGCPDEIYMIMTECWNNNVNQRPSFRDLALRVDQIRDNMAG
Experimental: (§1) Test method: Firstly, test compounds were prepared into 10 mM stock solution with DMSO, and continuously diluted into 10 concentrations at a 3-fold gradient for later use. 5X reaction buffer was diluted with deionized water into 1×reaction buffer (50 mM HEPES pH 7.5, 0.01% Brij-35, 10 mM MgCl2, 1 mM EGTA), which was used to prepare a mixture of kinase and peptide substrate, as well as a phosphorylated peptide substrate solution. The kinase concentration was determined based on enzyme titration, and the final concentration of peptide substrate and phosphorylated peptide substrate was 2 μM. 5 μL of mixture substrate of kinase and peptide substrate was added to each well on the 384 well plate. Then 5 nL of the test compound (starting with a final concentration of 10 μM) was added with an Echo520 Sampler. […] An additional 100% phosphorylation well (5 μL phosphorylated peptide substrate solution), a 0% phosphorylated well (5 μL of a mixture of kinase and peptide substrate, without test compounds and ATP), and a 0% inhibitory well (5 μL of a mixture of kinase and peptide substrate and appropriate concentration of ATP) were set as control. Two repeats were set for each concentration. The above reaction system was incubated at 30° C. for 1.5 hours. […] 2.5 μL of the diluted mixture was added to each well and the system was incubated at 30° C. for another 1 hour. […] The substrate phosphorylation rate was obtained by calculating the ratio, and the activity of the kinase and the effect of the inhibitor on the kinase was further calculated. Every experiment was repeated at least three times.

JAK3 = JAK3 (Homo sapiens (Human), UniProt P52333); experiment: Z′-Lyte kinase inhibitory activity test; type: biochemical; conditions: for JAK3 kinase inhibitory activity and selectivity (in words): summary of Table 3, activity maintained at ATP 1 mM
Chain of JAK3 (P52333 whole entry): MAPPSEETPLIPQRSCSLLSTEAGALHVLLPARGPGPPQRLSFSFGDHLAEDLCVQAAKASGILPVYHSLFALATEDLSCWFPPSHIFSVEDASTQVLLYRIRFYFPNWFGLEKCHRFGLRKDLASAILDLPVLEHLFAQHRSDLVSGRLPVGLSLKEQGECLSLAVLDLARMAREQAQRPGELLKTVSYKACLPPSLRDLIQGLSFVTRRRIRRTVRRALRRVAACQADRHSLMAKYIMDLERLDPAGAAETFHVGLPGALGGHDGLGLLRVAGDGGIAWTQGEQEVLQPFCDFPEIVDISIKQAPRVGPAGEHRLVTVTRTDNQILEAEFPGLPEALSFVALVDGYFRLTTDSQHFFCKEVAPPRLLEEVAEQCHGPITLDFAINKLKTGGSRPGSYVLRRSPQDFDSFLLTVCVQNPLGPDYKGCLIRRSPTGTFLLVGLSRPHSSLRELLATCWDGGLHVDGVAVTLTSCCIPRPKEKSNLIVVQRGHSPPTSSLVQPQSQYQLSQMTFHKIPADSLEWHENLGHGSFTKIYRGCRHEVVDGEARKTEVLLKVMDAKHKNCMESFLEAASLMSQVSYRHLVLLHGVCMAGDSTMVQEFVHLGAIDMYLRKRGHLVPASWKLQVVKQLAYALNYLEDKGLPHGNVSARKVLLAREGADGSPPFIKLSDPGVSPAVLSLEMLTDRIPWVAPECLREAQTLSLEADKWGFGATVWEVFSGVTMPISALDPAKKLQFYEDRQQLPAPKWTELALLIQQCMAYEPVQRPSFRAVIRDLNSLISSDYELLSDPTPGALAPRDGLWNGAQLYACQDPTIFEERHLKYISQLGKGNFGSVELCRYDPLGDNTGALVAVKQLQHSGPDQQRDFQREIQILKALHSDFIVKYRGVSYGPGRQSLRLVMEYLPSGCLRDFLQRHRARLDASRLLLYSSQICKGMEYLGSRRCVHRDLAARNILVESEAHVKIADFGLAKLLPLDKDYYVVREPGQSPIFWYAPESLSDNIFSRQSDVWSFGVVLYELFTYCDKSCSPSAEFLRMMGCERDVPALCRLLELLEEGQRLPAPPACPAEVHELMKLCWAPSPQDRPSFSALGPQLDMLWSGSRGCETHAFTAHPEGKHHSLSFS
Experimental: as §1

[1] = system: human T lymphoblastic lymphoma cell line Jurkat; experiment: CCK-8 in vitro proliferation inhibition; type: cell-based; conditions: Homo sapiens, Jurkat, 72 hours, read-out: Inhibitory activity (IC50) on cell proliferation, JURKAT
Experimental: (§2) Cell lines: human chronic myeloid leukemia cell line K562, human acute myeloid leukemia cell line U937, human T lymphocyte leukemia cell line HuT78, and human T lymphoblastic lymphoma cell line Jurkat. Cells were purchased from the Chinese Academy of Sciences Stem Cell Bank or ATCC.
(§3) […] were cultured overnight and suspended cells were directly stimulated with drugs. […] Two repeats were set for each concentration, with a final volume of 200 μL. […] The absorbance values at 450 nm and 650 nm were measured using a microplate reader, and the increment Z (A450-A650) was derived. The inhibitory rate of drugs on cell growth was calculated by GraphPad Prism 8.0.0 through the following formula:
(§4) Inhibition rate (%)(ODcontrol−ODdosing)/ODcontrol×100%
(§5) The half inhibitory concentration (IC50) was calculated. Every experiment was repeated at least three times.

[2] = system: human chronic myeloid leukemia cell line K562; experiment: CCK-8 in vitro proliferation inhibition; type: cell-based; conditions: read-out: Inhibitory activity (IC50) on cell proliferation, K562
Experimental: as §2, §3, §4, §5

[3] = system: human T lymphocyte leukemia cell line HuT78; experiment: CCK-8 in vitro proliferation inhibition; type: cell-based; conditions: Homo sapiens, HuT78, 72 hours, read-out: Inhibitory activity (IC50) on cell proliferation, HUT78
Experimental: as §2, §3, §4, §5

[4] = system: human acute myeloid leukemia cell line U937; experiment: CCK-8 in vitro proliferation inhibition; type: cell-based; conditions: read-out: Inhibitory activity (IC50) on cell proliferation, U937
Experimental: as §2, §3, §4, §5

JAK1 = JAK1 (Homo sapiens (Human), UniProt P23458); experiment: Z′-Lyte kinase inhibitory activity test; type: biochemical; conditions: ATP concentration Km
Chain of JAK1 (P23458 whole entry): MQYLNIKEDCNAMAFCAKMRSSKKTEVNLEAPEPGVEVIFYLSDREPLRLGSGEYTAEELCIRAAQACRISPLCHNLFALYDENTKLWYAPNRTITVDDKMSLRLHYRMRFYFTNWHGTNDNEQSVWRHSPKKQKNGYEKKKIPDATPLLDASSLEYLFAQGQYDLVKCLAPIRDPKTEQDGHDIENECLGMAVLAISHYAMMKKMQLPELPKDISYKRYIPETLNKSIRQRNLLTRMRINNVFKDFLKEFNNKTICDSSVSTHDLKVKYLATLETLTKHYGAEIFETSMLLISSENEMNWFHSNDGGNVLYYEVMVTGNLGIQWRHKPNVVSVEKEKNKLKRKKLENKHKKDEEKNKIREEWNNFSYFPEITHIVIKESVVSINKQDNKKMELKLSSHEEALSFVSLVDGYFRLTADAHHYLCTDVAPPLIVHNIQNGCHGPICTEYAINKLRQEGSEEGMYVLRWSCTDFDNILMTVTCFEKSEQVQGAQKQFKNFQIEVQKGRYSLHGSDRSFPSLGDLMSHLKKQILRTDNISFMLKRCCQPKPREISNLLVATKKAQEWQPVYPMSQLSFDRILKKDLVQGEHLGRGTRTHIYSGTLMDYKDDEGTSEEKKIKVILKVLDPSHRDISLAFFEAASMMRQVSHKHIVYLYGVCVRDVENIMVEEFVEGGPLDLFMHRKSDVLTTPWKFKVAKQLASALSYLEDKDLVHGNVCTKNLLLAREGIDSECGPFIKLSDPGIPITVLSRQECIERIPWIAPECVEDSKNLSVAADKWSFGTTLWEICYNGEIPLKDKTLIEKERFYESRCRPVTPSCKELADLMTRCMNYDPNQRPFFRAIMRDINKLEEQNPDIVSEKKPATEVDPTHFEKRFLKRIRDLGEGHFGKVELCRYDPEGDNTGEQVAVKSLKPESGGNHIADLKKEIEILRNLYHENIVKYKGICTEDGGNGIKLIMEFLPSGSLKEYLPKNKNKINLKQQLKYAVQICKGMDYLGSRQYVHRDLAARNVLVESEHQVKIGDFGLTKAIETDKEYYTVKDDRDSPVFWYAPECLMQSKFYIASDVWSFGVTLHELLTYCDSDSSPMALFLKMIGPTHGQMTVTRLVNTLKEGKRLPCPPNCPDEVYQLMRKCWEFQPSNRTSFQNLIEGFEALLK
Experimental: as §1

TYK2 = TYK2 (Homo sapiens (Human), UniProt P29597); experiment: Z′-Lyte kinase inhibitory activity test; type: biochemical; conditions: ATP concentration Km
Chain of TYK2 (P29597 whole entry): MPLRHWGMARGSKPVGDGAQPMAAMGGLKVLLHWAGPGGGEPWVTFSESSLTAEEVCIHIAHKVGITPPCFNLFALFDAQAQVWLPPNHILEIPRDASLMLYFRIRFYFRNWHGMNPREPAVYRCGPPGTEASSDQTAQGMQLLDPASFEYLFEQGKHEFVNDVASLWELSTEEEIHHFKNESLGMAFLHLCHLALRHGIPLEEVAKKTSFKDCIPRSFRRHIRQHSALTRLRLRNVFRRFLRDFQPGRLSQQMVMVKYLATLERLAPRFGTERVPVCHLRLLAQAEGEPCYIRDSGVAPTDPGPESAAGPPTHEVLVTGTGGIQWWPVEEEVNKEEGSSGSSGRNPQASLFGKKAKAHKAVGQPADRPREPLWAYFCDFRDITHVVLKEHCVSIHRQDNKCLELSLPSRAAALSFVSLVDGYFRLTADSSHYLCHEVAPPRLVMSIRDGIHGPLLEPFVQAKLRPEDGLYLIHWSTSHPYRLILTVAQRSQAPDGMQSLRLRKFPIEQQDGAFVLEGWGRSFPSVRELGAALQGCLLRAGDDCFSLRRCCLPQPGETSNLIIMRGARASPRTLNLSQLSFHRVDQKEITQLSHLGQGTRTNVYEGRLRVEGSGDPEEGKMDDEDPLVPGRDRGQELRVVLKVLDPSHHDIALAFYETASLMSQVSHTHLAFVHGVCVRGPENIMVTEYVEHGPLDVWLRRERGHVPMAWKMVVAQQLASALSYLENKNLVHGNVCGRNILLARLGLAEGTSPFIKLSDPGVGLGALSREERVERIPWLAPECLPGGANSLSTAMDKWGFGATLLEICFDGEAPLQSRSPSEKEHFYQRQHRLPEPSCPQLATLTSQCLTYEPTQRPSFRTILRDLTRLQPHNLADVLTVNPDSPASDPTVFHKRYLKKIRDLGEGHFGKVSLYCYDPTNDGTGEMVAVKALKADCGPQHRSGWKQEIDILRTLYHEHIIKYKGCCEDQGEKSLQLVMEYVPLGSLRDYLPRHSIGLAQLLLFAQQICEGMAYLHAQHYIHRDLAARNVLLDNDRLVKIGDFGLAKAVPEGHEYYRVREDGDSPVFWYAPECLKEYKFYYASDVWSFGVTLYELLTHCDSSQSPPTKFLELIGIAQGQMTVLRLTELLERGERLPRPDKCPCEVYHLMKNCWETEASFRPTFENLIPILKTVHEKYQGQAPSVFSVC
Experimental: as §1

Compound | IC50 (JAK2; ATP concentration Km) [µM] | IC50 ([2]; Homo sapiens, K562, 72 hours) [µM] | IC50 (JAK3; ATP concentration Km) [µM] | IC50 ([4]; Homo sapiens, U-937, 72 hours) [µM] | IC50 (JAK1) [µM] | IC50 (TYK2) [µM] | IC50 (JAK3; ATP concentration 1 mM) [µM] | also measured
COc1cc(N2CCC(N3CCN(C)CC3)CC2)ccc1Nc1ncc(Cl)c(O[C@H]2CO[C@H]3[C@@H]2OC[C@H]3O)n1 [LS 4-100] | – | – | – | – | – | – | – | IC50 (JAK3; ATP concentration Km, in μM): > 10 µM
CN1CCN(c2ccc(Nc3ncc(Cl)c(O[C@@H]4CO[C@H]5[C@@H]4OC[C@H]5O)n3)cc2Cl)CC1 [LS 4-142] | – | – | 0.0495 | – | – | – | – | –
Cc1cc(Nc2ncc(Cl)c(O[C@@H]3CO[C@H]4[C@@H]3OC[C@H]4O)n2)cnc1N1CCC(N2CCN(C)CC2)CC1 [LS 4-150] | – | – | 0.084 | – | – | – | – | –
CCN1CCN(Cc2ccc(Nc3ncc(Cl)c(O[C@@H]4CO[C@H]5[C@@H]4OC[C@H]5O)n3)nc2)CC1 [LS 5-54] | – | – | 5.75 | – | – | – | – | IC50 (JAK1; in μM): > 10 µM; IC50 (JAK2; ATP concentration Km, in μM): > 10 µM
N#CC1(c2ccc(Nc3ncc(Cl)c(O[C@@H]4CO[C@H]5[C@@H]4OC[C@H]5O)n3)cc2)CCCC1 [LS 5-58] | 0.67 | – | 0.12 | – | 0.161 | – | – | –
C=CC(=O)Nc1cc(Nc2ncc(Cl)c(O[C@@H]3CO[C@H]4[C@@H]3OC[C@H]4OC)n2)ccc1N1CCN(C)[C@@H](C)C1 [LS 6-49] | 1.1 | 0.371 | 0.0017 | 0.0794 | 4.69 | 1.19 | 0.00292 | JAK3 kinase inhibitory activity and selectivity (in words) (JAK3): strong and selective JAK3 kinase inhibitory activity
C=CC(=O)Nc1cc(Nc2ncc(Cl)c(O[C@@H]3CO[C@H]4[C@@H]3OC[C@@H]4F)n2)ccc1N1CCC(N2CCN(C)CC2)CC1 [LS 6-59] | – | – | – | – | 7.04 | 0.435 | – | IC50 ([2]; 72 hours): 0.281 µM; IC50 ([4]; 72 hours): 0.129 µM; IC50 (JAK2): 1.08 µM
C=CC(=O)Nc1cc(Nc2ncc(Cl)c(O[C@@H]3CO[C@H]4[C@@H]3OC[C@H]4F)n2)ccc1N(C)CCN(C)C [LS 6-88] | – | – | – | – | 87.1 | 0.93 | – | IC50 ([2]; 72 hours): 0.41 µM; IC50 ([4]; 72 hours): 0.0503 µM; IC50 (JAK3): 0.00135 µM and 0.00153 µM; JAK3 kinase inhibitory activity and selectivity (in words) (JAK3): strong and selective JAK3 kinase inhibitory activity; IC50 (JAK2): 1.72 µM
C=CC(=O)Nc1cc(Nc2ncc(Cl)c(O[C@@H]3CO[C@H]4[C@@H]3OCC4(F)F)n2)ccc1N(C)CCN(C)C [LS 6-105] | – | – | – | – | 4.22 | 0.272 | – | IC50 ([2]; 72 hours): 0.345 µM; IC50 ([4]; 72 hours): 0.0338 µM; IC50 (JAK3): 0.00113 µM and 0.00132 µM; JAK3 kinase inhibitory activity and selectivity (in words) (JAK3): strong and selective JAK3 kinase inhibitory activity; IC50 (JAK2): 0.589 µM
C=CC(=O)Nc1cc(Nc2ncc(Cl)c(O[C@@H]3CO[C@@H]4CCO[C@@H]43)n2)ccc1N(C)CCN(C)C [LS 6-121] | – | – | – | – | 2.93 | 0.278 | – | IC50 ([4]; 72 hours): 0.0313 µM; IC50 (JAK3): 0.0014 µM and 0.0016 µM; JAK3 kinase inhibitory activity and selectivity (in words) (JAK3): strong and selective JAK3 kinase inhibitory activity; IC50 (JAK2): 1.06 µM
C=CC(=O)Nc1cc(Nc2ncc(Cl)c(O[C@@H]3CO[C@H]4[C@@H]3OC[C@H]4OCC)n2)ccc1N(C)CCN(C)C [LS 7-13] | 1.89 | – | 0.0013 | 0.0299 | 8.6 | 1.66 | 0.0019 | JAK3 kinase inhibitory activity and selectivity (in words) (JAK3): strong and selective JAK3 kinase inhibitory activity
C=CC(=O)Nc1cc(Nc2ncc(Cl)c(O[C@@H]3CO[C@H]4[C@@H]3OC[C@H]4OC(C)C)n2)ccc1N(C)CCN(C)C [LS 7-18] | 2.66 | – | 0.0015 | 0.044 | – | 4.42 | 0.0023 | IC50 (JAK1; in μM): > 10 µM; JAK3 kinase inhibitory activity and selectivity (in words) (JAK3): strong and selective JAK3 kinase inhibitory activity

Further lines, with some results ahead:

IC50 (JAK2; ATP concentration Km) [µM] | IC50 ([2]; Homo sapiens, K562, 72 hours) [µM] | IC50 (JAK3; ATP concentration Km) [µM] | IC50 ([4]; Homo sapiens, U-937, 72 hours) [µM] | IC50 (JAK1) [µM] | IC50 (TYK2) [µM] | IC50 (JAK3; ATP concentration 1 mM) [µM] | Compound | also measured
8.16 | – | – | – | – | – | – | CN1CCN(C2CCN(c3ccc(Nc4ncc(Cl)c(O[C@H]5CO[C@H]6[C@@H]5OC[C@H]6O)n4)cc3Cl)CC2)CC1 [LS 3-96] | –
0.406 | – | – | – | – | – | – | CN1CCN(C2CCN(c3ccc(Nc4ncc(Cl)c(O[C@@H]5CO[C@H]6[C@@H]5OC[C@@H]6O)n4)cc3Cl)CC2)CC1 [LS 4-97] | –
0.291 | 0.542 | – | – | – | – | – | CN1CCN(C2CCN(c3ccc(Nc4ncc(Cl)c(O[C@@H]5CO[C@H]6[C@@H]5OC[C@H]6O)n4)cc3Cl)CC2)CC1 [LS 4-104] | IC50 [1]: 2.05 µM; IC50 [3]: 2.42 µM
– | – | 0.638 | – | – | – | – | COc1cc(Nc2ncc(Cl)c(O[C@H]3CO[C@H]4[C@@H]3OC[C@H]4O)n2)ccc1N1CCN(C)CC1 [LS 4-106] | –
– | – | 0.0848 | – | – | – | – | CN1CCN(c2ccc(Nc3ncc(Cl)c(O[C@@H]4CO[C@H]5[C@@H]4OC[C@H]5O)n3)cc2)CC1 [LS 4-144] | –
– | – | 6.47 | – | – | – | – | CN1CCN(C2CCN(c3ccc(Nc4ncc(Cl)c(O[C@@H]5CO[C@H]6[C@@H]5OC[C@H]6O)n4)c(Cl)c3)CC2)CC1 [LS 4-148] | –
– | 0.376 | 0.133 | 5.38 | – | – | – | C=CC(=O)Nc1cc(Nc2ncc(Cl)c(O[C@@H]3CO[C@H]4[C@@H]3OC[C@H]4O)n2)c(OC)cc1N1CCC(N2CCN(C)CC2)CC1 [LS 5-3] | IC50 [1]: 8.67 µM; IC50 [3]: 8.08 µM; IC50 (JAK1; in μM): > 10 µM; IC50 (JAK2; ATP concentration Km, in μM): > 10 µM
0.949 | – | 0.141 | – | 0.354 | – | – | CN1CCN(C2CCN(c3c(Cl)cc(Nc4ncc(Cl)c(O[C@@H]5CO[C@H]6[C@@H]5OC[C@H]6O)n4)cc3Cl)CC2)CC1 [LS 5-16] | –
– | 0.417 | 0.00193 | 0.0153 | 2.87 | 0.424 | 0.00225 | C=CC(=O)Nc1cc(Nc2ncc(Cl)c(O[C@@H]3CO[C@H]4[C@@H]3OC[C@H]4O)n2)ccc1N(C)CCN(C)C [LS 5-88] | IC50 [1]: 0.111 µM; IC50 [3]: 0.0811 µM
0.417 | – | 0.00634 | – | 0.685 | 0.313 | – | C=CC(=O)Nc1cc(Nc2ncc(C)c(O[C@@H]3CO[C@H]4[C@@H]3OC[C@H]4O)n2)ccc1N1CCC(N2CCN(C)CC2)CC1 [LS 5-133, N-(5-((4-(((3R,3aR,6R, 6aR)-6-hydroxyhexahydrofurano[3,2-b]furan-3-yl)oxygen)-5-methylpyrimidin-2-yl)amino)-2-(4-(4-methylpiperazin-1-yl)piperidin-1-yl)phenyl) acrylamide] | –
1.13 | 1.55 | 0.00387 | 0.403 | 2.75 | 0.637 | 0.0261 | C=CC(=O)Nc1cc(Nc2ncc(Cl)c(O[C@@H]3CO[C@H]4[C@@H]3OC[C@H]4OC)n2)ccc1N1CCOCC1 [LS 6-48] | –
2.47 | 0.906 | 0.00128 | 0.0407 | 33.9 | 0.921 | 0.00155 | C=CC(=O)Nc1cc(Nc2ncc(Cl)c(O[C@@H]3CO[C@H]4[C@@H]3OC[C@@H]4F)n2)ccc1N(C)CCN(C)C [LS 6-77] | JAK3 kinase inhibitory activity and selectivity (in words) (JAK3): strong and selective JAK3 kinase inhibitory activity
1.67 | 0.525 | 0.00402 | 0.146 | 12.6 | 0.912 | 0.00714 | C=CC(=O)Nc1cc(Nc2ncc(Cl)c(O[C@@H]3CO[C@H]4[C@@H]3OC[C@@H]4F)n2)ccc1N1CCN(CC)CC1 [LS 6-78] | –
1.71 | 0.62 | 0.00426 | 0.171 | 15.6 | 0.805 | 0.00654 | C=CC(=O)Nc1cc(Nc2ncc(Cl)c(O[C@@H]3CO[C@H]4[C@@H]3OC[C@H]4F)n2)ccc1N1CCN(CC)CC1 [LS 6-89] | –
